SMILES strings stand for the structures. Some results are limits rather than exact numbers.

The experiment concerns the target Platelet-activating factor receptor (Oryctolagus cuniculus). As to the kind of experiment: […] was measured as the IC50 for aggregation of washed rabbit platelets after incubation for 30 min at 37 C.

What is called IC50 is the midpoint of a concentration-inhibition curve. Molecule `CCCCCCCCCCCCCCCCC(=O)COCC(COP(=O)([O-])OCC[N+](C)(C)C)OC` (centres undefined) [2-methoxy-3-(2-oxooctadecyloxy)propyl-2-trimethylammonioethylphosphorate] registered an IC50 greater than 200 µM. In the case of `CCCCCCCCCCCC(CCCCCC)CCCCCCOCC(COP(=O)([O-])OCC[N+](C)(C)C)OC` (centres undefined) [2-methoxy-3-(7-hexyloctadecyloxy)propyl-2-trimethylammonioethylphosphorate], the IC50 is greater than 200 µM.

`CCCCCCCCCCCC(C)CCCCCCOCC(COP(=O)([O-])OCC[N+](C)(C)C)OC` (centres undefined) [2-methoxy-3-(7-methyloctadecyloxy)propyl-2-trimethylammonioethylphosphorate]: the IC50 is greater than 200 µM.

In the case of `CCCCCCCCC(CCCCCCOCC(COP(=O)([O-])OCC[N+](C)(C)C)OC)c1ccccc1` (centres undefined) [2-methoxy-3-(7-phenylpentadecyloxy)propyl-2-trimethylammonioethylphosphorate], the IC50 was greater than 200 µM.

For the molecule `COC(COCCCCCCCCCCC(=O)c1ccccc1)COP(=O)([O-])OCC[N+](C)(C)C` (centres undefined) [2-methoxy-3-(11-oxo-11-phenylundecyloxy)propyl-2-trimethylammonioethylphosphorate], the IC50 is greater than 200 µM. On to `COC(COCCCCCCCCCCCCCCCCc1ccccc1)COP(=O)([O-])OCC[N+](C)(C)C` (centres undefined) [2-methoxy-3-(16-phenylhexadecyloxy)propyl-2-trimethylammonioethylphosphorate], for which it took 20 µM to reach half-maximal inhibition (IC50). Turning to `COC(COCCCCCCCCCCC(O)c1ccccc1)COP(=O)([O-])OCC[N+](C)(C)C` (centres undefined) [3-(11-hydroxy-11-phenylundecyloxy)-2-methoxypropyl-2-trimethylammonioethylphosphorate], the IC50 is greater than 200 µM.

`CCCCCCC(CCCCCC)CCCCCCCCCCCOCC(COP(=O)([O-])OCC[N+](C)(C)C)OC` (centres undefined) [3-(12-hexyloctadecyloxy)-2-methoxypropyl-2-trimethylammonioethylphosphorate] registered an IC50 of 1.5 µM. Then `CCCCCCCCCCCC(=O)CCCCCCOCC(COCCCCC[N+](C)(C)C)OC` (centres undefined) [{5-[2-Methoxy-3-(7-oxo-octadecyloxy)-propoxy]-pentyl}-trimethyl-ammonium; bromide], with greater than 200 µM.

The values above are taken from BindingDB's records for doi:10.1021/jm00007a018 (Laboratorios Menarini, 1995).
